Columns and labels:
[1] = test system: riboflavin-binding monoclonal antibody (IgGλ monoclonal anti-flavin antibody) in the serum of a patient with multiple myeloma; details: cited from earlier work; for binding to the antibody relative to riboflavin: competitive-binding studies with flavin analogs and [14C]-labeled riboflavin
apoglucose oxidase = apoglucose oxidase (Aspergillus niger, UniProt P13006); assay: hCG ARIS assay: recombination of hCG-FAD conjugate with apoglucose oxidase, with or without FMN; type: biochemical; details: 10 μM FMN, 5 nM hCG-FAD conjugate, no serum
Method: In order to study the effect of flavin analogs in low level protein ARIS assays, a series of experiments were performed. In all cases the following manual assay protocol was employed. FAD-conjugate was incubated in 2.0 mL of assay mixture containing 10 mM DHSA, 0.1M glucose, 25 μg/mL horseradish peroxidase, 0.1% bovine serum albumin (BSA) in 0.1 M sodium phosphate at pH 7.0 with or without 5% serum and/or 10 μM FMN. After 30 minutes at 37° C., 100 μL of apoglucose oxidase/antiglucose oxidase (3 μM apoenzyme) in 50% glycerol and 4 μM 4-aminoantipyrene was added to initiate the reaction. Following a 30 minute assay incubation step at 37° C. the absorbance was measured at 520 nm.
Two controls were performed during this experiment: (1) conjugate, no serum, no FMN (maximum activity) and (2) conjugate, no serum, plus FMN (assess FMN effect on maximum activity).

Sequence of apoglucose oxidase (P13006 23-605 limits assumed): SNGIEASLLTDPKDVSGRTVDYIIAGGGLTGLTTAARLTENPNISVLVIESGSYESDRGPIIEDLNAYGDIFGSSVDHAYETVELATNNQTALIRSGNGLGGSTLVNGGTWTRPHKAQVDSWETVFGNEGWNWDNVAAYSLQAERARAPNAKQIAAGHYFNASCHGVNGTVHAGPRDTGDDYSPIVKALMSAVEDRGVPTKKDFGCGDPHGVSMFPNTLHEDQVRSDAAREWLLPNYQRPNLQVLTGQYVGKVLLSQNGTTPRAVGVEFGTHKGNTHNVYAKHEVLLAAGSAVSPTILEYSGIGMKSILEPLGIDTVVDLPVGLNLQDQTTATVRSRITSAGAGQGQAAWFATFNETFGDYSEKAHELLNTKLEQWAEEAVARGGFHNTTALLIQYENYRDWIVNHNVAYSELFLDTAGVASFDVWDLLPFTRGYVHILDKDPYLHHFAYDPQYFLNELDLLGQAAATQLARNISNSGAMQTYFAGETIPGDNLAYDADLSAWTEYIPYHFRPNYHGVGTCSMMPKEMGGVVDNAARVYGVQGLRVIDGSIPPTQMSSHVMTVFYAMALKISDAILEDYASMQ

Row | Structure (SMILES) | binding to the antibody relative to riboflavin [1] | inhibition at 10 µM (apoglucose oxidase; read-out: decrease of the maximum activity of the conjugate) | activity at 10 µM (apoglucose oxidase; relative to conjugate without FMN (maximum activity)) | Kd ([1]; high affinity (reversible) flavin-binding site)
1 | Cc1cc2nc3c(=O)[nH]c(=O)nc-3n(C[C@H](O)[C@H](O)[C@H](O)COP(=O)(O)OP(=O)(O)OC[C@H]3O[C@@H](n4cnc5c(N)ncnc54)[C@H](O)[C@@H]3O)c2cc1C [FAD, flavin adenine dinucleotide] | bound strongly to the antibody but not as tightly as FMN or riboflavin | – | – | –
2 | Cc1cc2nc3c(=O)[nH]c(=O)nc-3n(C[C@H](O)[C@H](O)[C@H](O)COP(=O)(O)O)c2cc1C [FMN, flavin mononucleotide] | bound equally well to this antibody as riboflavin | ~9% | 91% | –
3 | Cc1cc2nc3c(=O)[nH]c(=O)nc-3n(C[C@H](O)[C@H](O)[C@H](O)CO)c2cc1C [riboflavin] | – | – | – | 0.6 nM

From US4810635A, “Specific binding assays employing label analog to reduce sample interferences” (Miles Inc., priority 1986, dated 1989)
